Data set [1] deals with human having a gastrointestinal disorder that includes fecal incontinence. The experiment in a line: Treatment of ambulatory patients having fecal incontinence with daily oral medicine (case examples). The class given is in vivo. The settings on record: Example 3: person, sprain lumbar spine, 75 mg imipramine pamoate daily without stool softener, after several days. The text has this: (§1) The patient takes TYLOX, oxycontin, neurotin, aspirin, and anti-coagulants.

In a further data set the test system is human patient. The data set can be described thus: Side effects noted in patients under daily oral treatment (case examples). The settings on record: Example 3: 75 mg imipramine pamoate daily without stool softener.
Source text: as §1

On to `CN(C)CCCN1c2ccccc2CCc2ccccc21.CN(C)CCCN1c2ccccc2CCc2ccccc21.O=C(O)c1cc2ccccc2c(Cc2c(O)c(C(=O)O)cc3ccccc23)c1O` [imipramine pamoate, 5-[3-(dimethylamino)propyl]-10,11-dihydro-5H-dibenzazepine 4,4-methlyenebis-(3-hydroxy-2-napthoate)], for which, in data set [1], the “bladder and bowel functions as noted by patient” value is “full control of bladder and bowel functions”. The side effects entry with human patient was “develops constipation”.
